Experimental data: patent publication US20240238281A1, “PIPERAZINE DERIVATIVES AND APPLICATION THEREOF” (priority 2021, published 2024)
Where two headings read alike, the source gives them in different places.

How the values were obtained:
MC3R = biological target: T1, MC3R (Homo sapiens, UniProt P41968); test: In vitro activity of MCR receptors, intracellular cAMP signal (HEK293T/MCR cell line), MC3R; type: cell-based
T1 construct: expressed in transfected cells
Method: (§1) Test purpose: to evaluate the agonistic effect of the compound on MCRs by detecting intracellular cAMP signal changes.
(§2) Cells were resuspended with 1×PBS+500 μM IBMX. 10 μL of the cell suspension was added into a 384-well plate to be tested, and the cell concentration was adjusted to 1×10^4 cells per well for later use. A pre-prepared solution of the compound to be tested was added, and dimethyl sulfoxide of the same volume was added to blank control wells. The test plate was centrifuged at 300 rpm for 1 minute, incubated at 37° C. for 30 minutes, and added with 5 μL of cAMP-d2 and 5 μL of a CAMP-cry antibody detection reagent. The test plate was centrifuged at 300 rpm for 1 minute, and incubated at room temperature for 60 minutes.

MC5R = biological target: T2, MC5R (Homo sapiens, UniProt P33032); test: In vitro activity of MCR receptors, intracellular cAMP signal (HEK293T/MCR cell line), MC5R; type: cell-based; settings: cAMP, HEK293T/MCR cell line; read-out: MC5R EC50
T2 construct: expressed in transfected cells
T2 sequence (P33032 whole entry): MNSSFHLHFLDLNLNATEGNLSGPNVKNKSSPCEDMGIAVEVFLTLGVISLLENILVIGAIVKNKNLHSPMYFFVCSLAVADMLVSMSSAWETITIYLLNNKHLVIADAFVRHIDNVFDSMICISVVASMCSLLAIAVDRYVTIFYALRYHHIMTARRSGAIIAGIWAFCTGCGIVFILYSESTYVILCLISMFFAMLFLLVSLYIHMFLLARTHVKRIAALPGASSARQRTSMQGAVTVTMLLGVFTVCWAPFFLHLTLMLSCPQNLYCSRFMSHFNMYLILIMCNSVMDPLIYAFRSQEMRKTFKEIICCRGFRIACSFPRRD
Method: as §1
as §2, with “minutes. The test plate was placed in the Envision multifunctional microplate reader for reading, with a detection wavelength of 665/615 nm.” for “minutes.”

[1] = Drug concentration in brain tissues of rats, intravenous injection; type: in vivo, SD rats; settings: rat, i.v. 2 mg/kg
Method: 3.1 6 healthy SD rats of 6-9 weeks old were selected, and the test compound was administered via intravenous injection. Two animals were randomly selected at 0.5 hour, 2 hours and 4 hours after administration respectively, and plasma and brain tissue samples were collected, and the quantitative assay of all biological samples was performed using the LC-MS/MS method.

T1 sequence (P41968 whole entry): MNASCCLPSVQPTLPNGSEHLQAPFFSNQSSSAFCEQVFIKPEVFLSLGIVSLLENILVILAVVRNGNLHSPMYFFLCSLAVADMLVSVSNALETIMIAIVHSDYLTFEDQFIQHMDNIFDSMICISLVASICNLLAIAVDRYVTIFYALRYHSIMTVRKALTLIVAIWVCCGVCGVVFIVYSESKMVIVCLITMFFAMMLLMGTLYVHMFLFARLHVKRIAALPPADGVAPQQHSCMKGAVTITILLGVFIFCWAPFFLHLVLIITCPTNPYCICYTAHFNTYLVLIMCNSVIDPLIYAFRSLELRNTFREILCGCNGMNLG

## C[C@@H]1CN(C(=O)[C@@H]2CN(C3CCOCC3)C[C@H]2c2ccc(F)cc2F)C[C@H](C)N1c1ccc(F)cc1 (single isomer, unassigned) [Compound 7]
MC3R
  EC50: 4.21 µM
MC5R
  EC50: > 10 µM
[1]; SD, brain, iv, 0.5 hour, read-out: Brain drug concentration
  concentration at 0.5 h: 2830 nM
[1]; SD, brain, iv, 2 hours, read-out: Brain drug concentration
  concentration at 2 h: 965 nM
[1]; SD, brain/plasma, iv, 0.5 hour, read-out: Brain-to-blood ratio
  Kp at 0.5 h: 7.8
[1]; SD, brain/plasma, iv, 2 hours, read-out: Brain-to-blood ratio
  Kp at 2 h: 6.9
[1]; SD, plasma, iv, 0.5 hour, read-out: Plasma drug concentration
  concentration at 0.5 h: 362 nM
[1]; SD, plasma, iv, 2 hours, read-out: Plasma drug concentration
  concentration at 2 h: 141 nM
[1]; 4 hours
  Brain drug concentration (nmol/L): BQL
  Plasma drug concentration (nmol/L): BQL
